Assay results taken from US6610501B2, “Porcine protein and uses thereof” (New York Blood Center, Inc., priority 1999, dated 2003).

What was measured:
Type in all cases: cell-based, porcine
pRBCs [1] = details: 1 mg/ml trisaccharide, time course experiment at 37° C.; FIG. 5
Description: FIG. 3 represents the procedure for measuring human complement-mediated hemolysis. The procedure is outlined in panel B. Hemolysis (A) is plotted as percent lysis versus volume of human serum added (μl). Lysis is defined as (OD-ODo)/(OD100−ODo), where OD represents the amount of lysis, as measured by the absorbance at 541 nm, ODo is the absorbance at 541 nm that is due to spontaneous lysis in the absence of any additions, and OD100 is the absorbance at 541 nm that is due to 100% lysis of red cells under the experimental conditions. […]
The hemolysis was monitored up to 4 hr. […]
In blood transfusions between humans, mismatched red cells undergo intravascular destruction by the same mechanism as complement-induced hemolysis observed in vitro. […] Since this serum was derived from type B individuals, as determined by hemagglutination assays, we used only non-type A pRBCs in the complement assays to exclude the binding of anti-A antibody present in the serum.
The human serum (between 3-18 μl) was mixed with 40 μl of 5% pRBCs (about 2×10^7 cells) in a total volume of 210 μl. […] Hemoglobin molecules released from the lysed cells into the supernatant were quantitated by measuring the absorbance at 541 nm. […]
We also measured the time course for complement-mediated hemolysis of pRBCs (FIG. 5). […]

pRBCs [2] = test: Flow cytometry analysis of binding of human xenoreactive antibodies to pRBCs
Description: FIG. 7 represents the effect of the trisaccharide of FIG. 4 on the binding of fractions S1 and S2 to pRBCs. 40 μl of the trisaccharide (2 mg/ml) was added to 2 μl of S1 or S2 plus 38 μl of PBS (final concentration of trisaccharide 1 mg/ml), followed by incubation at 4° C. overnight. pRBCs were then added and flow cytometry analysis performed, using anti-human IgG (H+L) conjugated with phycoerythrin (PE) as the secondary antibody. Sample 1: negative control lacking the primary and secondary antibodies. Sample 2: negative control containing the secondary antibody only. Samples 3 and 4: fraction S1 without and with the trisaccharide of FIG. 4, respectively. Samples 5 and 6: fraction S2 without and with the trisaccharide of FIG. 4, respectively.
FIG. 8 represents the effect of concentration of the trisaccharide of FIG. 4 on the binding of S1 to pRBCs. Fraction S1 was incubated with various amounts of the trisaccharide under the same conditions described in […]. The binding of IgG (curve 1) and IgM (curve 2) molecules from fraction S1 was monitored by flow cytometry, using anti-human IgG and anti-human IgM, respectively. The data from the flow cytometry analyses were plotted as mean fluorescent intensity (MFI) versus the final concentration of trisaccharide, and the curves were generated by nonlinear curve fitting.
FIG. 9 represents the effect of the trisaccharide of FIG. 4 on the binding of anti-αGal and non-αGal antibodies to pRBCs. The control samples (1 and 2) were as described for FIG. 7. (A): anti-αGal antibody incubated in the absence (curve 3) or presence (curve 4) of the trisaccharide (1 mg/ml). (B): Non-αGal antibodies incubated in the absence (curve 3) or presence (curve 4) of the trisaccharide (1 mg/ml). […]
Various fractions derived from human serum were analyzed by flow cytometry. […]
To directly detect non-anti-αGal antibodies from the S2 fraction, we isolated these antibodies by using a pRBC absorption/elution method. The eluted fraction (non-αGal antibodies) was then measured for its binding to pRBCs in the presence or absence of the trisaccharide. […]

pRBCs [3] = test: Effect of ssDNA and thyroglobulin on S1- or S2-induced hemagglutination of pRBCs; details: final concentration 1 mg/ml, 4° C. 3 hr
Description: To determine whether the xenoreactive antibodies that we characterized in the binding of pRBCs are polyreactive, we tested the effect of ssDNA and thyroglobulin on binding of antibodies by hemagglutination assays and flow cytometry analyses (Turman M A, Casali P, Notkins A L, Bach F H, and Platt J L (1991) Transplantation 52:710-717). To ensure that the xenoreactive antibodies were not present in excess, we titrated the amount of antibodies used in the hemagglutination assays and chose the dilution that produced an intermediate strength (2+ or 3+) for inhibition. Fraction S1 or S2 was pre-incubated with ssDNA or thyroglobulin (final concentration 1 mg/ml) at 4° C. for 3 hr before adding pRBCs for the hemagglutination assay.

Compound: CC(=O)N[C@H]1C(O)O[C@H](CO)[C@@H](O[C@@H]2O[C@H](CO)[C@H](O)[C@H](O[C@H]3O[C@H](CO)[C@H](O)[C@H](O)[C@H]3O)[C@H]2O)[C@@H]1O (some centres unmarked) [trisaccharide, Galα1,3Galβ1,4GlcNAc]
- inhibition of cell lysis (pRBCs [1]): approximately 50%
- inhibition of anti-αGal antibody in normal human serum (pRBCs [2]; trisaccharide 1 mg/ml, flow cytometry): completely inhibited
- inhibition of IgG versus IgM binding of S1 to pRBCs (pRBCs [2]; various trisaccharide concentrations, FIG. 8): inhibit IgG binding more efficiently than IgM binding

Compound: thyroglobulin: thyroglobulin used to test polyreactivity of the antibodies
- inhibitory effect on S1- or S2-induced hemagglutination (pRBCs [3]): neither ssDNA nor thyroglobulin showed any inhibitory effect
- effect on binding of xenoreactive antibodies to pRBCs (pRBCs [2]; pre-incubation at 0.01, 0.1 or 1.0 mg/ml, FIG. 11): little affected, if any
